Measured values: patent US10689383B2, “Optionally fused heterocyclyl-substituted derivatives of pyrimidine useful for the treatment of inflammatory, metabolic, oncologic and autoimmune diseases” (NUEVOLUTION A/S, priority 2014, dated 2020)

Key:
[1] = biological target: T1, yeast Gal4-DNA binding domain fused to the ligand binding domain of human RORγ (Homo sapiens, UniProt P51449); test: RORγ Reporter Assay (Gal4); format: cell-based; details: values given as lower bounds of ranges; for Gal4 activity range @ 0.1 μM (% inhibition): RORγ Reporter Assay (Gal4) at 0.1 μM; for Gal4 activity range @ 1 μM (% inhibition): RORγ Reporter Assay (Gal4) at 1 μM
T1 construct: host or cells: HEK293t
T1 sequence (P51449 269-508 limits assumed): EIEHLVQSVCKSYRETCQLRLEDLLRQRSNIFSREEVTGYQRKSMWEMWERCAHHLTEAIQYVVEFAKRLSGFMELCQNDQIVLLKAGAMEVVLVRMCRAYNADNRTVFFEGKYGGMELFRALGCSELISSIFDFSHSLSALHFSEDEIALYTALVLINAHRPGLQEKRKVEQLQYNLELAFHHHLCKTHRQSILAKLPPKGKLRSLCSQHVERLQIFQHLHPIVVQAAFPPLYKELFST
How it was run: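 Compound at final 1,000 or 100 nM (0.1% DMSO, triplicate) was added to the transfected HEK293t cells carrying a Gal4-UAS luciferase reporter for 24 h at 37 °C, 10% charcoal-stripped FBS. Activity reduction expressed as percent of vehicle-only luciferase signal.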

[2] = biological target: T2, human RORγt (Ligand Binding Domain) (Homo sapiens, UniProt P51449); test: Fluorescence Polarization (FP) Assay; details: Fluorescence Polarization (FP) Assay; values given as upper bounds of activity ranges; read-out: FP activity range
T2 construct: purchased Crelux (Planegg, Germany) batch no PC5032-1
T2 sequence (P51449 269-508 limits assumed): T1 sequence (P51449 269-508 limits assumed)
How it was run: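 Binding to the ligand pocket followed by fluorescence polarization with a TAMRA-tagged RORγt ligand probe of 910 g/mole. Negative control wells received DMSO only.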

SMILES | Gal4 activity range @ 0.1 μM (% inhibition) [1] [% inhibition] | IC50 [2] [nM] | Gal4 activity range @ 1 μM (% inhibition) [1] [% inhibition]
Fc1c(NCc2ccsc2)ncnc1N1CCC[C@@H]1c1ccc(C(F)(F)F)cc1 [Example 185, 5-fluoro-N-(3-thienylmethyl)-6-[(2R)-2-[4-(trifluoromethyl)phenyl]pyrrolidin-1-yl]pyrimidin-4-amine] | >50 | < 1000 | 
COCC1(CNc2ncnc(N3CCC[C@@H]3c3ccc(C(F)(F)F)cc3)c2F)CCC1 [Example 188, 5-fluoro-N-[[1-(methoxymethyl)cyclobutyl]methyl]-6-[(2R)-2-[4-(trifluoromethyl)phenyl]pyrrolidin-1-yl]pyrimidin-4-amine] | >0 | < 500 | 
Fc1c(NC[C@H]2CC[C@H](Cc3nnn[nH]3)CC2)ncnc1N1CCC[C@@H]1c1ccc(C(F)(F)F)cc1 [Example 190, 5-fluoro-N-[[4-(1H-tetrazol-5-ylmethyl)cyclohexyl]methyl]-6-[(2R)-2-[4-(trifluoromethyl)phenyl]pyrrolidin-1-yl]pyrimidin-4-amine] | >80 | < 500 | >80
CC(=O)N1CCC(CNc2ncnc(N3CCC[C@@H]3c3ccc(C(F)(F)F)cc3)c2F)CC1 [Example 191, 1-[4-[[[5-fluoro-6-[(2R)-2-[4-(trifluoromethyl)phenyl]pyrrolidin-1-yl]pyrimidin-4-yl]amino]methyl]-1-piperidyl]ethanone] | >50 | < 500 | >80
NC(=O)Cc1ccc(Cn2ccc3c(N4CCC[C@@H]4c4ccc(C(F)(F)F)cc4)ncnc32)cc1 [Example 196, 2-[4-[[4-[(2R)-2-[4-(trifluoromethyl)phenyl]pyrrolidin-1-yl]pyrrolo[2,3-d]pyrimidin-7-yl]methyl]phenyl]acetamide] | >80 | < 500 | 
CS(=O)(=O)N1CCC(CNc2ncnc(N3CCC[C@@H]3c3ccc(C(F)(F)F)cc3)c2F)CC1 [Example 197, 5-fluoro-N-[(1-methylsulfonyl-4-piperidyl)methyl]-6-[(2R)-2-[4-(trifluoromethyl)phenyl]pyrrolidin-1-yl]pyrimidin-4-amine] | >80 | < 500 | >80
CC1(CNc2ncnc(N3CCC[C@@H]3c3ccc(C(F)(F)F)cc3)c2F)COC1 [Example 198, 5-fluoro-N-[(3-methyloxetan-3-yl)methyl]-6-[2-[4-(trifluoromethyl)phenyl]pyrrolidin-1-yl]pyrimidin-4-amine] | >20 | < 500 | >80
CC1(CNc2ncnc(N3CCC[C@@H]3c3ccc(C(F)(F)F)cc3)c2F)CCCO1 (stereo partly drawn) [Example 199, 5-fluoro-N-[(2-methyltetrahydrofuran-2-yl)methyl]-6-[(2R)-2-[4-(trifluoromethyl)phenyl]pyrrolidin-1-yl]pyrimidin-4-amine] | >20 | < 1000 | >80
CC1(CNc2ncnc(N3CCC[C@@H]3c3ccc(C(F)(F)F)cc3)c2F)CCCS1 (stereo partly drawn) [Example 201, 5-fluoro-N-[(2-methyltetrahydrothiophen-2-yl)methyl]-6-[(2R)-2-[4-(trifluoromethyl)phenyl]pyrrolidin-1-yl]pyrimidin-4-amine] | >0 | < 500 | >80
O=C(O)Cc1ccc(CNc2ncnc(N3CCC[C@@H]3c3ccc(C(F)(F)F)cc3)c2F)s1 [Example 207, 2-[5-[[[5-fluoro-6-[(2R)-2-[4-(trifluoromethyl)phenyl]pyrrolidin-1-yl]pyrimidin-4-yl]amino]methyl]-2-thienyl]acetic acid] | >20 | < 500 | >80
Fc1c(NCC2CCOCC2)ncnc1N1CCC[C@@H]1c1ccc(C(F)(F)F)cc1 [Example 208, 5-fluoro-N-(tetrahydropyran-4-ylmethyl)-6-[(2R)-2-[4-(trifluoromethyl)phenyl]pyrrolidin-1-yl]pyrimidin-4-amine] | >50 | < 500 | >80
Cc1ccc(CNc2ncnc(N3CCCC3(C)c3ccc(C(F)(F)F)cc3)c2F)cn1 (stereo not drawn) [Example 209, 5-fluoro-N-[(6-methyl-3-pyridyl)methyl]-6-[2-methyl-2-[4-(trifluoromethyl)phenyl]pyrrolidin-1-yl]pyrimidin-4-amine] | >20 | < 1000 | >50

Now from value to compound:

Gal4 activity range @ 0.1 μM (% inhibition) [1] [% inhibition] | IC50 [2] [nM] | Gal4 activity range @ 1 μM (% inhibition) [1] [% inhibition] | SMILES
>50 | < 500 |  | NS(=O)(=O)c1ccc(CNc2ncnc(N3CCC[C@@H]3c3ccc(C(F)(F)F)cc3)c2F)cc1 [Example 182, 4-[[[5-fluoro-6-[(2R)-2-[4-(trifluoromethyl)phenyl]pyrrolidin-1-yl]pyrimidin-4-yl]amino]methyl]benzenesulfonamide]
>50 | < 500 |  | Fc1c(NCc2ccc(Cl)nc2)ncnc1N1CCC[C@@H]1c1ccc(C(F)(F)F)cc1 [Example 183, N-[(6-chloro-3-pyridyl)methyl]-5-fluoro-6-[(2R)-2-[4-(trifluoromethyl)phenyl]pyrrolidin-1-yl]pyrimidin-4-amine]
>0 | < 500 |  | Fc1c(NCC2CCCOC2)ncnc1N1CCC[C@@H]1c1ccc(C(F)(F)F)cc1 (stereo partly drawn) [Example 186, 5-fluoro-N-(tetrahydropyran-3-ylmethyl)-6-[(2R)-2-[4-(trifluoromethyl)phenyl]pyrrolidin-1-yl]pyrimidin-4-amine]
>20 | < 500 |  | CNC(=O)Cc1ccc(CNc2ncnc(N3CCC[C@@H]3c3ccc(C(F)(F)F)cc3)c2F)cc1 [Example 189, 2-[4-[[[5-fluoro-6-[(2R)-2-[4-(trifluoromethyl)phenyl]pyrrolidin-1-yl]pyrimidin-4-yl]amino]methyl]phenyl]-N-methyl-acetamide]
>50 | < 500 |  | O=C(O)Cc1ccc(CNc2ncnc(N3CCCC3c3ccc(OC(F)(F)F)cc3)c2F)cc1 (stereo not drawn) [Example 192, 2-[4-[[[5-fluoro-6-[2-[4-(trifluoromethoxy)phenyl]pyrrolidin-1-yl]pyrimidin-4-yl]amino]methyl]phenyl]acetic acid]
>80 | < 500 |  | O=C(O)Cc1ccc(Cn2ccc3c(N4CCC[C@@H]4c4ccc(C(F)(F)F)cc4)ncnc32)cc1 [Example 195, 2-[4-[[4-[(2R)-2-[4-(trifluoromethyl)phenyl]pyrrolidin-1-yl]pyrrolo[2,3-d]pyrimidin-7-yl]methyl]phenyl]acetic acid]
>20 | < 1000 | >80 | OC1CCCCC1CNc1ncnc(N2CCC[C@@H]2c2ccc(C(F)(F)F)cc2)c1F (stereo partly drawn) [Example 200, 2-[[[5-fluoro-6-[(2R)-2-[4-(trifluoromethyl)phenyl]pyrrolidin-1-yl]pyrimidin-4-yl]amino]methyl]cyclohexanol]
>0 | < 10000 | >50 | O=S1(=O)CCOC(CNc2ncnc(N3CCC[C@@H]3c3ccc(C(F)(F)F)cc3)c2F)C1 (stereo partly drawn) [Example 202, N-[(4,4-dioxo-1,4-oxathian-2-yl)methyl]-5-fluoro-6-[(2R)-2-[4-(trifluoromethyl)phenyl]pyrrolidin-1-yl]pyrimidin-4-amine]
>0 | < 2000 | >50 | Fc1c(NCc2cccs2)ncnc1N1CCC[C@@H]1c1ccc(C(F)(F)F)cc1 [Example 203, 5-fluoro-N-(2-thienylmethyl)-6-[(2R)-2-[4-(trifluoromethyl)phenyl]pyrrolidin-1-yl]pyrimidin-4-amine]
>50 | < 500 | >80 | O=C(O)CC1CCC(CNc2ncnc(N3CCOC[C@@H]3c3ccc(C(F)(F)F)cc3)c2F)CC1 (stereo partly drawn) [Example 205, 2-[4-[[[5-fluoro-6-[(3S)-3-[4-(trifluoromethyl)phenyl]morpholin-4-yl]pyrimidin-4-yl]amino]methyl]cyclohexyl]acetic acid]
>20 | < 1000 | >80 | NC(=O)CC1CCC(CNc2ncnc(N3CCOC[C@@H]3c3ccc(C(F)(F)F)cc3)c2F)CC1 (stereo partly drawn) [Example 206, 2-[4-[[[5-fluoro-6-[(3S)-3-[4-(trifluoromethyl)phenyl]morpholin-4-yl]pyrimidin-4-yl]amino]methyl]cyclohexyl] acetamide]
